Source: ChEMBL document CHEMBL4351021, “Design, synthesis and biological evaluation of novel FFA1/GPR40 agonists: New breakthrough in an old scaffold” (Eur J Med Chem, 2019)
Active and inactive are the calls of the source. The rule behind the calls is not given here.

Columns and labels:
[1] = molecular target: T1, Free fatty acid receptor 1 (Homo sapiens, UniProt O14842); test: Agonist activity at FFA1 receptor (unknown origin) stably expressed in CHO cells assessed as increase in calcium flux by Fluo4-AM based FLIPR assay; format: functional, cell-based
Mus musculus [2] = test: Antidiabetic activity in ICR mouse assessed as reduction in blood glucose level at 20 mg/kg, po pretreated for 30 mins followed by glucose challenge and measured up to 120 mins by OGTT; format: functional, organism-based
[3] = Lipophilicity, logD of compound in 1-octanol and PBS mixture in pH 7.4 at 100 uM incubated for 24 under shaking condition by HPLC analysis; format: physicochemical; details: 1-octanol/PBS
[4] = Clearance in Sprague-Dawley rat at 10 mg/kg, po measured for […] by LC-MS/MS analysis; format: ADME, organism-based; details: in vivo
[5] = Half life in Sprague-Dawley rat at 10 mg/kg, po measured for […] by LC-MS/MS analysis; format: ADME, organism-based; details: in vivo
Hepatocyte [6] = test: Hepatotoxicity in sandwich-cultured Sprague-Dawley rat hepatocytes assessed as inhibition of hepatobiliary transport by measuring biliary excretion index at 25 uM incubated for 15 mins followed by d8-TCA addition and measured after 15 mins by LC-MS/MS analysis; format: toxicity, cell-based; details: 0.25 h
Hepatocyte [7] = test: Hepatotoxicity in sandwich-cultured Sprague-Dawley rat hepatocytes assessed as decrease in accumulation of d8-TCA at 25 uM incubated for 15 mins followed by d8-TCA addition and measured after 15 mins by LC-MS/MS analysis; format: toxicity, cell-based; details: 0.25 h
Mus musculus [8] = test: Antidiabetic activity in ICR mouse assessed as flattening of glucose curve after 1 hr at 20 mg/kg, po pretreated for 30 mins followed by glucose challenge and measured up to 120 mins by OGTT; format: functional, organism-based
[9] = AUC (0 to 24 hrs) in Sprague-Dawley rat at 10 mg/kg, po measured for […] by LC-MS/MS analysis; format: ADME, organism-based; parameters: time < 24 hr, dose 10 mg/kg, route oral; details: in vivo; for AUC: 24 h
[10] = Cmax in Sprague-Dawley rat at 10 mg/kg, po measured for […] by LC-MS/MS analysis; format: ADME, organism-based; parameters: dose 10 mg/kg, route oral; details: in vivo
Rattus norvegicus [11] = test: Antidiabetic activity in Sprague-Dawley rat assessed as change in blood glucose level in fasting state at 10 mg/kg, po pretreated for 1 hr followed by glucose challenge and measured up to 120 mins by OGTT; format: functional, organism-based
Rattus norvegicus [12] = test: Antidiabetic activity in Sprague-Dawley rat assessed as increase in plasma insulin level at 10 mg/kg, po pretreated for 1 hr followed by glucose challenge and measured at 0 mins by ELISA; format: functional, organism-based
Mus musculus [13] = test: Antidiabetic activity in ICR mouse assessed as increase in GLP-1 secretion at 20 mg/kg, po pretreated with DPP4 inhibitor linagliptin for 1 hr followed by compound addition and measured after 4 hrs by ELISA; format: functional, organism-based
Mus musculus [14] = test: Antidiabetic activity in ICR mouse assessed as glucose-stimulated change in GLP-1 secretion at 20 mg/kg, po pretreated for 0.5 hrs followed by glucose challenge and measured after 5 mins by ELISA; format: functional, organism-based
[15] = Acute toxicity in ICR mouse assessed as induction of side effects at 5 to 500 mg/kg, po daily for 7 days; format: organism-based; details: in vivo, 168 h
[16] = Acute toxicity in ICR mouse assessed as change in ALT level up to 500 mg/kg, po daily for 7 days; format: organism-based; details: in vivo, 168 h
Mus musculus [17] = test: Antidiabetic activity in HFD fed/STZ-treated C57BL/6 mouse assessed as decrease in blood glucose at 20 mg/kg, po pretreated for 30 mins followed by glucose challenge and measured after up to 120 mins by OGTT; format: functional, organism-based
Rattus norvegicus [18] = test: Antidiabetic activity in Sprague-Dawley rat assessed as suppression in blood glucose excursion at 10 mg/kg, po pretreated for 1 hr followed by glucose challenge and measured up to 120 mins by OGTT; format: functional, organism-based
[19] = Acute toxicity in ICR mouse assessed as change in liver morphology at 5 to 500 mg/kg, po daily for 7 days by H and E staining based histopathological analysis; format: organism-based; details: in vivo, 168 h
Rattus norvegicus [20] = test: Antidiabetic activity in Sprague-Dawley rat assessed as change plasma in insulin level at 10 mg/kg, po pretreated for 1 hr followed by glucose challenge by ELISA; format: functional, organism-based; details: TDE = time-dependent effect
[21] = Acute toxicity in ICR mouse assessed as change in AST level up to 500 mg/kg, po daily for 7 days; format: organism-based; details: in vivo, 168 h
Rattus norvegicus [22] = test: Antidiabetic activity in Sprague-Dawley rat assessed as change in blood glucose level at 10 mg/kg, po pretreated for 1 hr followed by glucose challenge by OGTT; format: functional, organism-based; details: TDE = time-dependent effect
Rattus norvegicus [23] = test: Antidiabetic activity in Sprague-Dawley rat assessed as increase in plasma insulin level at 10 mg/kg, po administrated and measured up to 120 mins by ELISA; format: functional, organism-based
[24] = molecular target: T1, Free fatty acid receptor 1; test: Potency index, ratio of EC50 for 2-(4-(([…]3-yl)methoxy)-2-fluorophenoxy)acetic acid to EC50 for test compound for Agonist activity at FFA1 receptor (unknown origin) stably expressed in CHO cells assessed as increase in calcium flux by Fluo4-AM based FLIPR assay; format: functional, cell-based

T1 sequence (O14842 whole entry): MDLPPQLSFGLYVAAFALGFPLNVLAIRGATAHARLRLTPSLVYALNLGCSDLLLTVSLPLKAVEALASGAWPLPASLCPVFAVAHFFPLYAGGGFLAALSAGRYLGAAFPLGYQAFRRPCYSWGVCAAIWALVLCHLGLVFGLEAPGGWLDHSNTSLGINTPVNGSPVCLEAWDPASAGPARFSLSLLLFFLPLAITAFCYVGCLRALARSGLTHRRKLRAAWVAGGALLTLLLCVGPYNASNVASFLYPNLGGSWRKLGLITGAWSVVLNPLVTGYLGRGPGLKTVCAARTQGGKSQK

O=C(O)COc1ccc(NCc2cccc(-c3ccccc3Cl)c2)cc1F
EC50 [1]: 19.3 nM
Activity (Mus musculus [2]): Active
logD at 100 µM [3]: 2.71

CCCOc1ccc(-c2cccc(CNc3ccc(OCC(=O)O)c(F)c3)c2)c(C)c1
EC50 [1]: 41.3 nM
logD at 100 µM [3]: 3.37

Cc1noc(C)c1-c1cccc(CNc2ccc(OCC(=O)O)c(F)c2)c1
EC50 [1]: 225 nM

Cc1ccccc1-c1cccc(CNc2ccc(OCC(=O)O)c(F)c2)c1
CL/F ([4]; Sprague-Dawley): 0.109 mL/min/kg
half-life [5]: 5.42 h
Activity_index (Hepatocyte [6]): 12.3%
Activity (Hepatocyte [7]): Toxic
Activity (Mus musculus [8]): Active
AUC(0-t) at 24 h ([9]; Sprague-Dawley): 2870 µg·h/mL
Activity (Mus musculus [2]): Active
logD at 100 µM [3]: 2.41
Cmax [10]: 187 µg/mL

CCOc1cc(C)c(-c2cccc(COc3ccc(OCC(=O)O)c(F)c3)c2)c(C)c1
EC50 [1]: 69.3 nM
logD at 100 µM [3]: 3.61

CCOc1cc(C)c(-c2cccc(COc3ccc(NCC(=O)O)c(F)c3)c2)c(C)c1
EC50 [1]: > 1000 nM

O=C(O)COc1ccc(NCc2cccc(-c3ccccc3)c2)cc1F
EC50 [1]: 58.5 nM
logD at 100 µM [3]: 2.25

CCOc1cc(C)c(-c2cccc(CNc3ccc(OCC(=O)O)cc3)c2)c(C)c1
EC50 [1]: 197 nM

Cc1cc(OCCO)ccc1-c1cccc(CNc2ccc(OCC(=O)O)c(F)c2)c1
Activity_index (Hepatocyte [6]): 14.3%
EC50 [1]: 36.1 nM
Activity (Hepatocyte [7]): Toxic
logD at 100 µM [3]: 1.65

O=C(O)COc1ccc(NCc2ccc(Cl)c(-c3ccccc3)c2)cc1F
EC50 [1]: 51.7 nM
logD at 100 µM [3]: 2.74

CCCOc1cc(C)c(-c2cccc(CNc3ccc(OCC(=O)O)c(F)c3)c2)c(C)c1
EC50 [1]: 38.7 nM
logD at 100 µM [3]: 3.59

CC(C)c1ccccc1-c1cccc(CNc2ccc(OCC(=O)O)c(F)c2)c1
EC50 [1]: 86.2 nM
logD at 100 µM [3]: 3.45

COc1ccc(Cl)cc1C(=O)NCCc1ccc(S(=O)(=O)NC(=O)NC2CCCCC2)cc1
Activity (Rattus norvegicus [11]): Active

O=C(O)COc1ccc(NCc2cccc(-c3ccccc3F)c2)cc1F
EC50 [1]: 36.5 nM
logD at 100 µM [3]: 2.36

Cc1cc(OCCCS(C)(=O)=O)ccc1-c1cccc(CNc2ccc(OCC(=O)O)c(F)c2)c1
EC50 [1]: 45.6 nM
logD at 100 µM [3]: 1.59

N#Cc1ccccc1-c1cccc(CNc2ccc(OCC(=O)O)c(F)c2)c1
EC50 [1]: 729 nM

O=C(O)COc1ccc(NCc2cccc(-c3ccccc3C(F)(F)F)c2)cc1F
CL [4]: 0.124 mL/min/kg
half-life [5]: 4.84 h
Activity_index (Hepatocyte [6]): 29.6%
Activity (Rattus norvegicus [12]): Active
Activity (Mus musculus [13]): Active
Activity (Rattus norvegicus [11]): inactive
EC50 [1]: 15.7 nM
Activity (Hepatocyte [7]): Toxic
AUC [9]: 3909.33 µg·h/mL
Activity (Mus musculus [14]): inactive
Activity (Mus musculus [2]): Active
logD at 100 µM [3]: 3.13
Activity [15]: Non-Toxic
Activity [16]: Non-Toxic
Activity (Mus musculus [17]): Active
Activity (Rattus norvegicus [18]): Active
Activity [19]: Non-Toxic
Activity (Rattus norvegicus [20]): Tde
Cmax [10]: 322 µg/mL
Activity [21]: Non-Toxic
Activity (Rattus norvegicus [22]): Tde
Activity (Rattus norvegicus [23]): inactive

COCCOc1cc(C)c(-c2cccc(CNc3ccc(OCC(=O)O)c(F)c3)c2)c(C)c1
EC50 [1]: 51.6 nM
logD at 100 µM [3]: 2.47

Cc1cc(O)ccc1-c1cccc(CNc2ccc(OCC(=O)O)c(F)c2)c1
EC50 [1]: 69.6 nM
logD at 100 µM [3]: 1.85

CCOc1ccc(-c2cccc(CNc3ccc(OCC(=O)O)c(F)c3)c2)c(C)c1
Activity_index (Hepatocyte [6]): 19.3%
EC50 [1]: 11.6 nM
Activity (Hepatocyte [7]): Toxic
Activity (Mus musculus [2]): Active
logD at 100 µM [3]: 2.83

Cc1ccc(-c2cccc(CNc3ccc(OCC(=O)O)c(F)c3)c2)c(Cl)c1
EC50 [1]: 22.5 nM
logD at 100 µM [3]: 3.24

COCCOc1ccc(-c2cccc(CNc3ccc(OCC(=O)O)c(F)c3)c2)c(C)c1
EC50 [1]: 41.9 nM
logD at 100 µM [3]: 2.23

Cc1cc(OCCCS(C)(=O)=O)cc(C)c1-c1cccc(COc2ccc3c(c2)OC[C@H]3CC(=O)O)c1
CL [4]: 0.4177 mL/min/kg
half-life [5]: 4.32 h
Activity (Mus musculus [13]): inactive
Activity (Hepatocyte [7]): Toxic
AUC [9]: 1064.23 µg·h/mL
Activity (Mus musculus [14]): inactive
Activity (Mus musculus [2]): Active
Activity (Mus musculus [17]): Active
Cmax [10]: 87.4 µg/mL

COc1ccccc1-c1cccc(CNc2ccc(OCC(=O)O)c(F)c2)c1
EC50 [1]: 536 nM

Cc1cc(OCCCS(C)(=O)=O)cc(C)c1-c1cccc(CNc2ccc(OCC(=O)O)c(F)c2)c1
EC50 [1]: 59.8 nM
logD at 100 µM [3]: 1.73

CCOc1cc(C)c(-c2cccc(CNc3ccc(OCC(=O)O)c(F)c3)c2)c(C)c1
EC50 [1]: 24.2 nM
Ratio EC50 [24]: 3
Activity (Mus musculus [2]): Active
logD at 100 µM [3]: 3.04

CO/N=C(\COc1ccc(CNc2ccc(OCC(=O)O)c(F)c2)cc1)c1ccccc1
EC50 [1]: 398 nM
